Counter-ions that a name gives are not always drawn. Like-named read-outs stand apart in the source and are kept apart here.
Tests used:
CDK2/CycE = CDK2/CycE (Homo sapiens (Human), UniProt P24941); assay: CDK2/CycE kinase assay (Method 2); type: biochemical; conditions: 10 μM ATP
Source text: 2. CDK2/CycE Kinase Assay:
CDK2/CycE-inhibitory activity of compounds of the present invention was quantified employing the CDK2/CycE TR-FRET assay as described in the following paragraphs:
Recombinant fusion proteins of GST and human CDK2 and of GST and human CycE, expressed in insect cells (Sf9) and purified by Glutathion-Sepharose affinity chromatography, were purchased from ProQinase GmbH (Freiburg, Germany). As substrate for the kinase reaction biotinylated peptide biotin-Ttds-[…] (C-terminus in amid form) was used which can be purchased e.g. form the company JERINI Peptide Technologies (Berlin, Germany).
(§1) For the assay 50 nl of a 100 fold concentrated solution of the test compound in DMSO was pipetted into a black low volume 384 well microtiter plate (Greiner Bio-One, Frickenhausen, Germany), 2 μl of a solution of CDK2/CycE in aqueous assay buffer [50 mM Tris/HCl pH 8.0, 10 mM MgCl2, 1.0 mM dithiothreitol, 0.1 mM sodium ortho-vanadate, 0.01% (v/v) Nonidet-P40 (Sigma)] were added and the mixture was incubated for 15 min at 22° C. to allow pre-binding of the test compounds to the enzyme before the start of the kinase reaction. […] The concentration of CDK2/CycE was adjusted depending of the activity of the enzyme lot and was chosen appropriate to have the assay in the linear range, typical concentrations were in the range of 130 ng/ml.
(§2) The resulting mixture was incubated 1 h at 22° C. to allow the formation of complex between the phosphorylated biotinylated peptide and the detection reagents. Subsequently the amount of phosphorylated substrate was evaluated by measurement of the resonance energy transfer from the Eu-chelate to the streptavidine-XL. Therefore, the fluorescence emissions at 620 nm and 665 nm after excitation at 350 nm was measured in a TR-FRET reader, e.g. a Rubystar (BMG Labtechnologies, Offenburg, Germany) or a Viewlux (Perkin-Elmer). The ratio of the emissions at 665 nm and at 622 nm was taken as the measure for the amount of phosphorylated substrate.

CDK9/CycT1 [1] = biological target: T1, CDK9/CycT1 (Homo sapiens (Human), UniProt P50750); assay: CDK9/CycT1 high ATP kinase assay (Method 1b); type: biochemical; conditions: 2 mM ATP
T1 sequence (P50750 whole entry): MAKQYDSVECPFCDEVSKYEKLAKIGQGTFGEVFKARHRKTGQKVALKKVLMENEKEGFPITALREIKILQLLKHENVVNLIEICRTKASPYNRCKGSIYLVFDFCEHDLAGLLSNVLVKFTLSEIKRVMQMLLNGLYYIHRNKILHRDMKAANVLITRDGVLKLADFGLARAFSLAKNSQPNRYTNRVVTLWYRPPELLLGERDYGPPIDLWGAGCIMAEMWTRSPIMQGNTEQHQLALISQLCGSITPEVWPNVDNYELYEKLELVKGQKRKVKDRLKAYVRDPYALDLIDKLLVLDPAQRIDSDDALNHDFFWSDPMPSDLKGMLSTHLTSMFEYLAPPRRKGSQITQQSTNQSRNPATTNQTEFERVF
T1 sequence (O60563 whole entry partner): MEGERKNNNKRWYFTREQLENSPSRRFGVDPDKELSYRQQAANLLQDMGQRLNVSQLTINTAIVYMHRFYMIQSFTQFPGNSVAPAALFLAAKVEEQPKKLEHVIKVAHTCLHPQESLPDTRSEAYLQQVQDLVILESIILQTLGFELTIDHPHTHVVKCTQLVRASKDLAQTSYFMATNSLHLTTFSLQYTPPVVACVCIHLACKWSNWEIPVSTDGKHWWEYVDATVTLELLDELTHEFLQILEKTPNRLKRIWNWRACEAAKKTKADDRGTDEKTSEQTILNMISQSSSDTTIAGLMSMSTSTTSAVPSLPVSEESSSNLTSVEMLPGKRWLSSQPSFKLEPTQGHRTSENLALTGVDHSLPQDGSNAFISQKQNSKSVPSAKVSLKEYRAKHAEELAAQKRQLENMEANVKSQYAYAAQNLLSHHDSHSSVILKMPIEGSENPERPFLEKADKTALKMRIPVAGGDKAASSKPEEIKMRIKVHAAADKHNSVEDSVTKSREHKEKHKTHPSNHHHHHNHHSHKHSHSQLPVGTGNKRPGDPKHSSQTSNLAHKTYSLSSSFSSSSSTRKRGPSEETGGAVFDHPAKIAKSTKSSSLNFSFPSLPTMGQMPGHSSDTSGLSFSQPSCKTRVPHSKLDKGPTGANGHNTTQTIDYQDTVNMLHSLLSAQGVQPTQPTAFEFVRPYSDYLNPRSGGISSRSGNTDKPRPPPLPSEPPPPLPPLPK
Procedure: 1b. CDK9/CycT1 High ATP Kinase Assay
CDK9/CycT1-inhibitory activity of compounds of the present invention at a high ATP concentration after preincubation of enzyme and test compounds was quantified employing the CDK9/CycT1 TR-FRET assay as described in the following paragraphs.
(§3) Recombinant full-length His-tagged human CDK9 and CycT1, expressed in insect cells and purified by Ni-NTA affinity chromatography, were purchase from Invitrogen (Cat. No PV4131). As substrate for the kinase reaction biotinylated peptide biotin-Ttds-[…] (C-terminus in amid form) was used which can be purchased e.g. form the company JERINI peptide technologies (Berlin, Germany).
as §1, with “CDK9/CycT1” for “CDK2/CycE”, “0.5 μg/ml.” for “130 ng/ml.”
as §2, with “HTRF” for “TR-FRET”

CDK9/CycT1 [2] = biological target: T1, CDK9/CycT1; assay: CDK9/CycT1 kinase assay (Method 1a); type: biochemical; conditions: for IC50: 10 μM ATP; for Selectivity CDK9/CDK2: derived from Methods 1a. and 2.
Source text: 1a. CDK9/CycT1 Kinase Assay:
CDK9/CycT1-inhibitory activity of compounds of the present invention was quantified employing the CDK9/CycT1 TR-FRET assay as described in the following paragraphs:
as §3, with “were purchased” for “were purchase”, “JERINI Peptide Technologies” for “JERINI peptide technologies”
as §1, with “CDK9/CycT1” for “CDK2/CycE”, “1 μg/ml.” for “130 ng/ml.”
as §2, with “HTRF” for “TR-FRET”

[3] = In vitro metabolic stability in rat hepatocytes (Method 5); type: in vitro ADME, Han Wistar rat; conditions: 1 μM test compound
Procedure: 5. Investigation of In Vitro Metabolic Stability in Rat Hepatocytes
Hepatocytes from Han Wistar rats were isolated via a 2-step perfusion method. After perfusion, the liver was carefully removed from the rat: the liver capsule was opened and the hepatocytes were gently shaken out into a Petri dish with ice-cold Williams medium E (purchased from Sigma Aldrich Life Science, St Louis, Mo.). The resulting cell suspension was filtered through sterile gaze in 50 ml falcon tubes and centrifuged at 50×g for 3 min at room temperature. The cell pellet was resuspended in 30 ml WME and centrifuged through a Percoll® gradient for 2 times at 100×g. The hepatocytes were washed again with Williams' medium E (WMA) and resuspended in medium containing 5% Fetal calf serum (FCS, purchased from Invitrogen, Auckland, NZ). Cell viability was determined by trypan blue exclusion.
For the metabolic stability assay liver cells were distributed in WME containing 5% FCS to glass vials at a density of 1.0×10^6 vital cells/ml. The test compound was added to a final concentration of 1 μM. During incubation, the hepatocyte suspensions were continuously shaken and aliquots were taken at 2, 8, 16, 30, 45 and 90 min, to which equal volumes of cold acetonitrile were immediately added. Samples were frozen at −20° C. over night, after subsequently centrifuged for 15 minutes at 3000 rpm and the supernatant was analyzed with an Agilent 1200 HPLC-system with LCMS/MS detection.
The half-life of a test compound was determined from the concentration-time plot. From the half-life the intrinsic clearances were calculated. Together with the additional parameters liver blood flow, amount of liver cells in vivo and in vitro.

[4] = tested on: HeLa, human cervical tumour cells; assay: Proliferation assay, HeLa (Method 3); type: cell-based; conditions: 4 days, crystal violet, read-out: Inhibition of HeLa cell proliferation IC50
Procedure: (§4) After 24 hours, the cells of one plate (zero-point plate) were stained with crystal violet (see below), while the medium of the other plates was replaced by fresh culture medium (200 μl), to which the test substances were added in various concentrations (0 μM, as well as in the range of 0.001-10 μM; the final concentration of the solvent dimethyl sulfoxide was 0.5%). The cells were incubated for 4 days in the presence of test substances. Cell proliferation was determined by staining the cells with crystal violet: the cells were fixed by adding 20 μl/measuring point of an 11% glutaric aldehyde solution for 15 minutes at room temperature. After three washing cycles of the fixed cells with water, the plates were dried at room temperature. The cells were stained by adding 100 μl/measuring point of a 0.1% crystal violet solution (pH 3.0). After three washing cycles of the stained cells with water, the plates were dried at room temperature. The dye was dissolved by adding 100 μl/measuring point of a 10% acetic acid solution. The extinction was determined by photometry at a wavelength of 595 nm. The change of cell number, in percent, was calculated by normalization of the measured values to the extinction values of the zero-point plate (=0%) and the extinction of the untreated (0 μm) cells (=100%).

[5] = tested on: A2780, human ovarian carcinoma cells; assay: Proliferation assay, A2780 (Method 3); type: cell-based; conditions: A2780, 4 days, crystal violet, read-out: Inhibition of A2780 cell proliferation IC50
Procedure: as §4

Row | Compound | IC50 (CDK2/CycE) | IC50 (CDK9/CycT1 [1]) | IC50 (CDK9/CycT1 [2]) | Selectivity CDK9/CDK2 (CDK9/CycT1 [2]) | maximal calculated oral bioavailability (Fmax) based on stability data in rat Hepatocytes [3] | IC50 [4] | IC50 [5] | IC50 ([4]; Homo sapiens, 96 h) | IC50 ([5]; Homo sapiens, A2780, 96 h)
1 | CS(=O)(Cc1cc(Nc2ncc(F)c(-c3ccc(F)cc3F)n2)cc(C(F)(F)F)c1)=NC(N)=O (single isomer, unassigned) [Example 24, 1-{[3-{[4-(2,4-Difluorophenyl)-5-fluoropyrimidin-2-yl]amino}-5-(trifluoromethyl)benzyl](methyl)oxido-λ^6-sulfanylidene}urea] | 670 nM | 199 nM | 10 nM | 66 | 82% | 910 nM | 320 nM | – | –
2 | N=S(=O)(CCN)Cc1cc(Nc2ncc(F)c(-c3ccc(F)cc3F)n2)cc(C(F)(F)F)c1 (single isomer, unassigned) [Example 27, N-[3-{[S-(2-Aminoethyl)sulfonimidoyl]methyl}-5-(trifluoromethyl)phenyl]-4-(2,4-difluorophenyl)-5-fluoropyrimidin-2-amine] | 1100 nM | 276 nM | – | – | – | – | – | – | –
3 | CS(=O)(Cc1cc(Cl)cc(Nc2ncc(F)c(-c3ccc(F)cc3F)n2)c1)=NC#N (racemic) [Example 14, (rac)-[(3-Chloro-5-{[4-(2,4-difluorophenyl)-5-fluoropyrimidin-2-yl]amino}benzyl)(methyl)oxido-λ^6-sulfanylidene]cyanamide] | 530 nM | – | – | – | 75% | – | – | 1020 nM | 540 nM
4 | COCCS(=O)(Cc1cc(Nc2ncc(F)c(-c3ccc(F)cc3F)n2)cc(C(F)(F)F)c1)=NC#N (racemic) [Example 22, (rac)-{[3-{[4-(2,4-Difluorophenyl)-5-fluoropyrimidin-2-yl]amino}-5-(trifluoromethyl)benzyl](2-methoxyethyl)oxido-λ^6-sulfanylidene}cyanamide] | 1200 nM | 19 nM | 7 nM | 183 | – | – | – | 900 nM | –
5 | N=S(=O)(CCN)Cc1cc(Nc2ncc(F)c(-c3ccc(F)cc3F)n2)cc(C(F)(F)F)c1 (racemic) [Example 25, (rac)-N-[3-{[S-(2-Aminoethyl)sulfonimidoyl]methyl}-5-(trifluoromethyl)phenyl]-4-(2,4-difluorophenyl)-5-fluoropyrimidin-2-amine trifluoroacetate] | 3200 nM | 417 nM | 85 nM | 38 | – | – | – | 2210 nM | –

Results, then the compound that gave them:

Row | IC50 (CDK2/CycE) | IC50 (CDK9/CycT1 [1]) | IC50 (CDK9/CycT1 [2]) | Selectivity CDK9/CDK2 (CDK9/CycT1 [2]) | maximal calculated oral bioavailability (Fmax) based on stability data in rat Hepatocytes [3] | IC50 [4] | IC50 [5] | IC50 ([4]; Homo sapiens, 96 h) | IC50 ([5]; Homo sapiens, A2780, 96 h) | Compound
6 | 1100 nM | 2710 nM | 42 nM | 25 | – | – | – | – | – | CS(=N)(=O)Cc1cccc(Nc2ncc(F)c(-c3ccc(F)cc3F)n2)c1 (racemic) [Example 9, (rac)-4-(2,4-Difluorophenyl)-5-fluoro-N-{3-[(S-methylsulfonimidoyl)methyl]phenyl}pyrimidin-2-amine]
7 | 720 nM | 6490 nM | 19 nM | 38 | – | 649 nM | – | – | – | Cc1cc(CS(C)(=N)=O)cc(Nc2ncc(F)c(-c3ccc(F)cc3F)n2)c1 (single isomer, unassigned) [Example 38, 4-(2,4-Difluorophenyl)-5-fluoro-N-{3-methyl-5-[(S-methylsulfonimidoyl)methyl]-phenyl}pyrimidin-2-amine]
8 | 830 nM | 6310 nM | 36 nM | 23 | – | – | – | 1080 nM | – | Cc1cc(CS(C)(=N)=O)cc(Nc2ncc(F)c(-c3ccc(F)cc3F)n2)c1 (single isomer, unassigned) [Example 37, 4-(2,4-Difluorophenyl)-5-fluoro-N-{3-methyl-5-[(S-methylsulfonimidoyl)methyl]-phenyl}pyrimidin-2-amine]
9 | 480 nM | 470 nM | 26 nM | 19 | – | – | – | 1360 nM | 180 nM | Cc1cc(CS(C)(=N)=O)cc(Nc2ncc(F)c(-c3ccc(F)cc3F)n2)c1 (racemic) [Example 17, (rac)-4-(2,4-Difluorophenyl)-5-fluoro-N-{3-methyl-5-[(S-methylsulfonimidoyl)methyl]phenyl}pyrimidin-2-amine]
